# Assay results taken from patent US20050107430A1, “Antimicrobial and antiviral compounds” (priority 2003, published 2005).
# Where “and” joins values, the source holds several entries; their conditions need not be identical. Equal values may be shown once. Entries after “also recorded” stand apart in the source; their conditions may differ. Marks after values point to notes of the source that are not given here.
# Tests used:
# various microorganisms = experiment: Antimicrobial activity tests, various microorganisms; conditions: for growth in wells (activity): Example 1 microbes
# Mycobacterium fortutium = experiment: MIC, Mycobacterium fortutium; type: cell-based; conditions: for MIC, Mycobacterium fortutium: Table 3
# [1] = test system: MRSA (oxacillin/methicillin resistant S. aureus); experiment: NCCLS MIC/MBC microdilution, MRSA; conditions: for MIC, MRSA (methicillin resistant): Table 3, 24 h and 48 h same results
# Procedure: (§2) Standard NCCLS (e.g., National Committee for Clinical Laboratory Standards) methods for determining MIC (e.g., minimum inhibitory concentration) and MBC (e.g., minimum bactericidal concentration) were used. 96 well micro-well plates were placed in a humid chamber and frozen at −70° C. [BBL Mueller Hinton Broth]. Drugs (e.g., antimicrobial compounds of the present invention) were added to a series of wells through 2 fold serial dilutions. 100 μl of a 2×10^−3 M solution of the respective Tx compounds was added to the first well in a series. 100 μl of the inoculum (e.g., microorganism) was added to the well. […] For example, the concentration in well 8 would be less than the concentration of the same drug in well 7. Inoculum (e.g., microorganism) that was added to the wells was prepared from 24 hour growth of an isolate on 5% sheep blood/Columbia agar plates. 5 to 10 representative colonies were then picked from the plates and added to saline and adjusted to 0.5 McFarland turbidity. Next the sample was diluted 1:100 in saline, such that 100 μl of the diluted sample contained approximately 1×10^5 microbes. 100 μl of the diluted sample was added to each well in a series of drug concentrations. Once the cells were added to the wells, the well plates were incubated at 35° C. without CO2 for 48 hrs and at this time the minimum bactericidal concentration was determined.
# (§3) The MIC of Tx-118, Tx-147, and Tx-197 for certain Staphylococcus aureus (MRSA), Pseudomonas aeruginosa, Stenotrophomonas maltophilia, and VRE Enterococcus faecalis was determined using standard NCCLS methods. The first well in each series of decreasing drug concentrations contained 1×10^−4 M of a drug. The drug was diluted by serial two fold dilutions through all 12 wells in a series. There was a final DMSO concentration of 2% in the first well and 1% in the second well, etc. Tests with Tx-118 and Tx-197 were performed in triplicate, and tests with Tx-147 were performed in duplicate.
# P. aeruginosa = experiment: NCCLS MIC/MBC microdilution, P. aeruginosa; set-up: MIC: key to the marks not given beside the values; conditions: for MIC, P. aeruginosa: Table 3, P. aeroginosa is L13 from Table 2
# [2] = test system: Stenotrophomonas maltophilia; experiment: NCCLS MIC/MBC microdilution, S. maltophilia; conditions: for MIC, Stenotrophomonas maltophilia: 24 h and 48 h same results
# Procedure: as §2, §3
# [3] = test system: VRE (Vancomycin resistant Enterococci); experiment: NCCLS MIC/MBC microdilution, VRE; conditions: for MIC, VRE enterococcus (E. faecalis): 24 h and 48 h same results; for MIC: plate D4, VRE patient isolate
# Procedure: as §2, §3
# human fibroblasts = experiment: Toxicity study with human fibroblasts; type: cell-based
# BDF1′ mice = conditions: 30 mg/kg ip
# E. coli ATCC 25922 = experiment: NCCLS MIC/MBC microdilution, E. coli; type: cell-based; conditions: plate EC
# Excerpt: (§1) [BBL Mueller Hinton Broth].
# Enterococcus faecium = experiment: NCCLS MIC/MBC microdilution, Enterococcus (vancomycin sensitive); type: cell-based; conditions: for MBC: read at 48 hr
# Excerpt: as §1
# S. aureus = experiment: NCCLS MIC/MBC microdilution, S. aureus patient isolates; type: cell-based, Staphylococcus aureus; conditions: for MBC: read at 48 hr
# Excerpt: as §1
# [4] = test system: chloroquin (CQ) resistant strain of Plasmodium falciparum (Pf); experiment: In vitro efficacy against chloroquin resistant Plasmodium falciparum; type: cell-based; conditions: for IC50: CQ resistant P. falciparum, in vitro, triplicate
# Procedure: Tx-5 and Tx-84 were tested for in vitro efficacy against a chloroquin (CQ) resistant strain of Plasmodium falciparum (Pf). The tests were performed in triplicate at a wide variety of concentrations and evaluated for effect compared with CQ.
# [5] = test system: Mycobacterium tuberculosis; conditions: Table 3
# M. avium intracellularie = experiment: MIC, M. avium intracellularie; type: cell-based, Mycobacterium avium intracellulare; conditions: Table 3
# [6] = test system: Vancomycin resistant S. aureus ATCC700699 and 700788 (VRSA); experiment: NCCLS MIC/MBC microdilution, vancomycin resistant S. aureus; type: cell-based, Staphylococcus aureus; conditions: for MBC: read at 48 hr
# Excerpt: as §1
# [7] = plate K12, MRSA patient isolate
# [8] = plate E348, Enterococcus faecium patient isolate
# [9] = plate E502, Enterococcus faecium ATCC 502806
# [10] = plate E523, Enterococcus facium patient isolate
# [11] = plate 37, P. aeruginosa sensitive isolate
# [12] = plate ATCC, P. aeruginosa ATCC 27853
# [13] = plate L13, P. aeruginosaR (multi-resistant)
# [14] = plate C3, S. maltophilia patient isolate
# [15] = plate I10, S. maltophilia patient isolate
# [16] = plate J11, S. maltophilia patient isolate
# [17] = plate S332, S aureus patient isolate
# [18] = plate S520, S aureus patient isolate penicillin resistant
# [19] = Table 3, 24 h and 48 h same results
# [20] = plate 699, VancoR S. aureus ATCC700699
# [21] = plate 788, VancoR S. aureus ATCC 700788
# [22] = Example 2, first well 1×10^−4 M
smiles,measurement,setting,value
"CN1CCN(C(=O)CCC(=O)Nc2cc3c4ccccc4c(Br)cc3c3ccccc23)CC1 [Tx-9, N-(12′-bromo, 6′-chrysenyl)-4-(4′N methyl-piperazinyl)-butane-1,4-dicarboxiamide]",growth in wells (activity),various microorganisms,"+3 growth (e.g., no activity)"
"O=C1[C@@H](O)[C@H](c2ccccc2)N1c1cc2c3ccccc3ccc2c2ccccc12 (relative stereo) [Tx-197, Trans-1-N-(6′-chrysenyl)-3-hydroxy-4-phenyl-2-azetidinone]","MIC, Mycobacterium fortutium",Mycobacterium fortutium,No activity
same,"MIC, MRSA (methicillin resistant)",[1],No activity
same,"MIC, P. aeruginosa",P. aeruginosa,No activity
same,"MIC, Stenotrophomonas maltophilia",[2]; Table 3,No activity
same,"MIC, VRE enterococcus (E. faecalis)",[3]; Table 3,No activity
O=C(CCC(=O)N1CCCCC1)Nc1cc2c(c3ccccc13)-c1ccc3ccccc3c1C2 [Tx-38],Toxicity/human fibroblasts (IC50),human fibroblasts,12 ug/ml human fibroblasts
same,"animal studies (ip), mortality",BDF1′ mice,30 mg/kg (no mort)
same,"MIC, MRSA (methicillin resistant)",[1],No activity
same,MIC,"[1]; plate A1, MRSA patient isolate",+++^a
same,MIC,"[1]; plate B2, MRSA patient isolate",+++
same,MIC,"[1]; plate E5, MRSA patient isolate",+++
same,MIC,"[1]; plate F6, MRSA patient isolate",+++
same,MIC,"[1]; plate G7, MRSA patient isolate",+++
same,MIC,"[1]; plate H9, MRSA patient isolate",+++
same,MIC,[1]; [7],+++
same,MIC,E. coli ATCC 25922,+++
same,MIC,Enterococcus faecium; [8],+++
same,MIC,Enterococcus faecium; [9],+++
same,MIC,Enterococcus faecium; [10],+++
same,"MIC, P. aeruginosa",P. aeruginosa,No activity
same,MIC,P. aeruginosa; [11],+++
same,MIC,P. aeruginosa; [12],+++
same,MIC,P. aeruginosa; [13],+++
same,"MIC, Stenotrophomonas maltophilia",[2]; Table 3,No activity
same,MIC,[2]; [14],+++
same,MIC,[2]; [15],+++
same,MIC,[2]; [16],+++
same,"MIC, VRE enterococcus (E. faecalis)",[3]; Table 3,No activity
same,MIC,[3],+++
same,MIC,S. aureus; [17],+++
same,MIC,S. aureus; [18],+++
c1ccc2c(c1)c(NCCCCN1CCCCC1)cc1c3ccccc3c(NCCCCN3CCCCC3)cc21 [Tx-84],"MIC, MRSA (methicillin resistant)",[1],16 µg/mL
same,"MIC, P. aeruginosa",P. aeruginosa,No activity
same,"MIC, VRE enterococcus (E. faecalis)",[3]; Table 3,4 to 33 µg/mL
same,IC50,[4],91 nM
same,inhibitory effect against Pf,[4]; in words,significant inhibitory effect; also recorded: greater than that of CQ
"O=C(CCC(=O)N1CCCCC1)Nc1cc2c3ccccc3ccc2c2ccccc12 [Tx-3, N-(6′-chrysenyl)-4-(1′-piperidinyl)-butane-1-4-dicarboxiamide]","MIC, Mycobacterium tuberculosis",[5],.125 µg/mL
same,"MIC, M. avium intracellularie",M. avium intracellularie,.98 µg/mL
"CC(=O)c1cc2c3ccccc3ccc2c2ccc(NC(=O)CCC(=O)N3CCN(C)CC3)cc12 [Tx-118, N-(12′-acetyl, 2′-chrysenyl)-4-(4′N methyl-piperazinyl)-butane-1,4-dicarboxiamide]","MIC, Mycobacterium fortutium",Mycobacterium fortutium,No activity
same,"MIC, MRSA (methicillin resistant)",[1],No activity
same,"MIC, P. aeruginosa",P. aeruginosa,No activity
same,"MIC, Stenotrophomonas maltophilia",[2]; Table 3,No activity
same,"MIC, VRE enterococcus (E. faecalis)",[3]; Table 3,No activity
"O=C(CCC(=O)N1CCCCC1)Nc1cc2c3ccccc3c(Br)cc2c2ccccc12 [Tx-11, N-(12′-bromo, 6-chrysenyl)-4-(1′-piperidinyl)-butane-1,4-dicarboxiamide]",growth in wells (activity),various microorganisms,"+3 growth (e.g., no activity)"
"CN1CCN(C(=O)CCC(=O)Nc2ccc3c(c2)c(Br)cc2c4ccccc4ccc32)CC1 [Tx-10, N-(12′-bromo, 2′-chrysenyl)-4-(4′N methyl-piperazinyl)-butane-1,4-dicarboxiamide]",growth in wells (activity),various microorganisms,"+3 growth (e.g., no activity)"
Cl.c1ccc2c(c1)c(NCCCCN1CCCCC1)cc1c3ccccc3c(NCCCCN3CCCCC3)cc21 [Tx-225],antimicrobial activity,various microorganisms; in words,activity similar to Tx-84
"CCN(CC)CCCC(C)Nc1ccnc2cc(Cl)ccc12 (stereo not shown) [CQ, chloroquin, reference compound]",IC50,[4],606 nM
"CN1CCN(C(=O)CCC(=O)Nc2ccc3c(ccc4c5ccccc5ccc34)c2)CC1 [Tx-2, N-(2′-chrysenyl)-4-(4′N-methyl-piperazinyl)-butane-1,4-dicarboxiamide]","MIC, Mycobacterium tuberculosis",[5],1 µg/mL
same,"MIC, M. avium intracellularie",M. avium intracellularie,15.6 µg/mL
CN1CCN(CCCCNc2cc3c4ccccc4c(NCCCCN4CCN(C)CC4)cc3c3ccccc23)CC1.Cl [Tx-147],MIC for Mycobacterium fortutium,Mycobacterium fortutium; Example 2,0.0039 µg/mL
same,"MIC, Mycobacterium fortutium",Mycobacterium fortutium,39 µg/mL
same,"MIC, VRSA (ATCC 700699)",[6]; [19],6 µg/mL
same,"MIC, VRSA (ATCC 700788)",[6]; [19],24 µg/mL
same,MIC,[6]; [20],6 µg/mL
same,MBC,[6]; [20],23 µg/mL
same,MIC,[6]; [21],24 µg/mL
same,MBC,[6]; [21],49 µg/mL
same,"animal studies (ip), mortality",BDF1′ mice,30 mg/kg (10-12% mort)
same,MIC for Staphylococcus aureus (MRSA),"[1]; Example 2, first well 1×10^−4 M, two fold dilutions",0.0039 µg/mL
same,"concentration that was bactericidal, Staphylococcus aureus (MRSA)","[1]; Example 2, wells 1 and 2, hydrochloride",0.0078 µg/mL and 0.0039 µg/mL
same,"MIC, MRSA (methicillin resistant)",[1],24 to 49 µg/mL
same,bactericidal activity against Staphylococcus aureus (MRSA),"[1]; in words, Example 1",bactericidal activity
same,MIC,"[1]; plate A1, MRSA patient isolate",24 µg/mL
same,MIC,"[1]; plate B2, MRSA patient isolate",48 µg/mL
same,MIC,"[1]; plate E5, MRSA patient isolate",24 µg/mL
same,MIC,"[1]; plate F6, MRSA patient isolate",24 µg/mL
same,MIC,"[1]; plate G7, MRSA patient isolate",24 µg/mL
same,MIC,"[1]; plate H9, MRSA patient isolate",48 µg/mL
same,MIC,[1]; [7],48 µg/mL
same,MIC,E. coli ATCC 25922,+++
same,MIC,Enterococcus faecium; [8],3 µg/mL
same,MBC,Enterococcus faecium; [8],6 µg/mL
same,MIC,Enterococcus faecium; [9],6 µg/mL
same,MBC,Enterococcus faecium; [9],12 µg/mL
same,MIC,Enterococcus faecium; [10],6 µg/mL
same,MBC,Enterococcus faecium; [10],12 µg/mL
same,"MIC, P. aeruginosa",P. aeruginosa,No activity
same,MIC,P. aeruginosa; [11],+++
same,MIC,P. aeruginosa; [12],+++
same,MIC,P. aeruginosa; [13],+++
same,MIC for Stenotrophomonas maltophilia,[2]; [22],0.0078 µg/mL
same,"MIC, Stenotrophomonas maltophilia",[2]; Table 3,98 to 785 µg/mL
same,"MIC, Stenotrophomonas maltophilia (resist. various drugs)","[2]; Table 3, strain resist. various drugs",78 µg/mL
same,MIC,[2]; [14],96 µg/mL
same,MIC,[2]; [15],784 µg/mL
same,MIC,[2]; [16],784 µg/mL
same,"MIC, Mycobacterium tuberculosis",[5],3 µg/mL
same,MIC for VRE,[3]; [22],0.0019 µg/mL
same,"MIC, VRE enterococcus (E. faecalis)",[3]; Table 3,12 µg/mL
same,"MIC, VRE enterococcus (vancomycin, Penicillin & aminoglycoside rest.)","[3]; Table 3, vancomycin, Penicillin & aminoglycoside resistant",19 µg/mL
same,bactericidal activity for VRE,"[3]; in words, Example 1",some bactericidal activity
same,MIC,[3],12 µg/mL
same,"MIC, M. avium intracellularie",M. avium intracellularie,12 to 24 µg/mL
same,MIC,S. aureus; [17],12/12 ug/ml
same,MBC,S. aureus; [17],12/12 ug/ml
same,MIC,S. aureus; [18],12/12 ug/ml
same,MBC,"S. aureus; plate S520, S aureus patient isolate",12/12 ug/ml
"CN1CCN(C(=O)CCC(=O)Nc2cc3c4ccccc4ccc3c3ccccc23)CC1 [Tx-1, N-(6′-chrysenyl)-4-(4′N methyl-piperazinyl)-butane-1,4-dicarboxiamide]","MIC, Mycobacterium tuberculosis",[5],2.9 µg/mL
same,"MIC, M. avium intracellularie",M. avium intracellularie,46 µg/mL
"O=C(CCC(=O)N1CCCCC1)Nc1ccc2c(c1)c(Br)cc1c3ccccc3ccc21 [Tx-12, N-(12′-bromo, 2′-chrysenyl)-4-(1′-piperidinyl)-butane-1,4-dicarboxiamide]",growth in wells (activity),various microorganisms,"+3 growth (e.g., no activity)"
"O=C(CCC(=O)N1CCCCC1)Nc1ccc2c(ccc3c4ccccc4ccc23)c1 [Tx-4, N-(2′-chrysenyl)-4-(1′-piperidinyl)-butane-1,4-dicarboxiamide]","MIC, Mycobacterium tuberculosis",[5],.1 µg/mL
same,"MIC, M. avium intracellularie",M. avium intracellularie,.82 µg/mL
